In patent US11046657B2, “Pyrimidinone derivatives and uses thereof to neutralize the biological activity of chemokines” (Centre National de la Recherche Scientifique (CNRS), priority 2016, dated 2021):

Experiments:
CXCL12 to CXCR4 = CXCL12 to CXCR4 (Homo sapiens, UniProt P48061); conditions: cited from earlier work
[1] = tested on: Balb/c mice sensitized to ovalbumin; conditions: mouse model of airway allergic eosinophilic inflammation; cited from earlier work
[2] = tested on: Balb/c mice administered LPS; test: LPS-induced mouse model of neutrophilic airway inflammation (COPD); format: in vivo; conditions: 350 μmol/kg i.p. in 1% CMC, 2 h before LPS; lavage 24 h after LPS
Experimental: In vivo effect of a systemic treatment with chalcone-4 or compound (1) in a LPS-induced mouse model of neutrophilic airway inflammation. Balb/c mice were administered intranasally with LPS (1 μg, white block) or saline (control). Chalcone-4 (gray block) or compound (1) (black block) (350 μmol/kg each) suspended in 1% CMC or solvent (CMC alone) were administered intraperitoneally 2 h before LPS. Neutrophil recruitment is shown, inhibited by chalcone 4 and compound (1). Data points are means and bars are S.E.M. values of n=6 determinations.
The in vivo activity of compound (1) was tested in the murine model of neutrophilic airway inflammation induced by lipopolysaccharide (LPS) as previously described (Flacher et al, ACS Chem Biol. 2015, 10:2697-705)^14.
Briefly, Balb/c mice were administered intranasally with LPS (lipopolysaccharide from E. coli, O55B5, 1 μg, Sigma Aldrich) or saline. Treatments with (1) or Chalcone-4 (350 μmol/kg) in 1% CMC (carboxymethylcellulose) were administered by the intraperitoneal route 2 h before LPS instillation. Bronchoalveolar lavage was performed 24 h after LPS, and neutrophil, lymphocyte, eosinophil and macrophage numbers quantified.

[3] = tested on: Balb/c mice sensitized to ovalbumin; test: 8-day murine model of allergic eosinophilic airway inflammation; format: in vivo, mouse; conditions: for IC50 on eosinophil recruitment: intranasal, 2 h before each challenge, in PBS/Cdx, bronchoalveolar lavage 24 h after last challenge
Experimental: In vivo dose-response effect of a topical treatment with chalcone-4 and compound (1) of formula (I) in an 8-day mouse model of allergic eosinophilic airway inflammation. Balb/c mice were sensitized to ovalbumin (OVA, 50 μg) in the presence of 2 mg alum (IP. injection on days 0, 1 and 2) and challenged with OVA (10 μg) or saline (IN.) on days 6, 7 and 8. Increasing doses of chalcone-4 (gray line) or compound (1) (black line) solubilized in 10% hydroxypropyl-B-cyclodextrine (Cdx) were administered by the intranasal route 2 h before each challenge. Bronchoalveolar lavage was performed 24 h after the last challenge, and inflammatory cells including eosinophils counted. The percentage of inhibition of eosinophil recruitment is shown. Data points are means and bars are S.E.M. values of n=6 determinations.
The in vivo activity of compound (1) was tested in the 8-day murine model of allergic eosinophilic airway inflammation previously described^13.
Briefly, Balb/c mice were sensitized to ovalbumin (OVA) and challenged 3 times with OVA or saline at 24 h interval. Treatments with each compound (300 nmol/kg in 10% PBS/Cdx) were administered by the intranasal route 2 h before each challenge. Bronchoalveolar lavage was performed 24 h after the last challenge, and eosinophil, macrophage, neutrophil and lymphocyte numbers quantified.
Using the same protocol, the dose-response of compound (1) and chalcone-4 was evaluated on eosinophil recruitment after intranasal administration (FIG. 1).

CXCL12 = conditions: cited from earlier work
CCL17 = biological target: T1, CCL17 (Homo sapiens, UniProt Q92583); test: Selectivity towards chemokine CCL17; conditions: 5 μM
T1 sequence (Q92583 24-94): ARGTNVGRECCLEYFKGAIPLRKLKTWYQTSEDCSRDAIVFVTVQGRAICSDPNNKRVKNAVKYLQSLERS
Experimental: (§1) Furthermore, the selectivity of (1) was also evaluated towards two other chemokines, namely CCL17 and CCL22, with no activity at 5 μM (data not shown).

CCL22 = biological target: T2, CCL22 (Homo sapiens, UniProt O00626); test: Selectivity towards chemokine CCL22; conditions: 5 μM
T2 sequence (O00626 25-93): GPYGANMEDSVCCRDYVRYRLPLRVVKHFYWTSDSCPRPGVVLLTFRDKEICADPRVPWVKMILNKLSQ
Experimental: as §1

MRL/lpr mice = test: Peripheral hypercellularity in MRL/lpr lupus prone mice; format: in vivo; conditions: single i.v. administration, 100 μg/mouse, counted five days later; p <0.05
Experimental: Effect of compound (1) and classical anti-inflammatory drugs on peripheral hypercellularity in MRL/lpr mice. MRL/lpr mice (11-13 week-old) received intravenously a single administration of either compound (1) or chalcone 4-Phosphate or indicated molecules in saline (100 μg/mouse of each). The control group received saline only. The number of white blood cells (WBCs)/mL was evaluated by counting cells five days later. The results are expressed as the mean reduction of peripheral WBCs percentage+/−SEM. Statistical significance was assessed using the unpaired t-test. n=number of mice/group; ns=non-significant. […]
The test was as described previously (Schall et al., 2012; Briand et al., 2014). […] After centrifugation, white blood cells (WBCs) resuspended in phosphate buffer saline containing fetal calf serum were stained with acridine orange/propidium iodide and counted using a LUNA FL apparatus (logos Biosystems, Annandale, USA). The number of living WBCs in each group was compared to the one counted in the control group and the decrease of peripheral cell number was calculated. […] The results are expressed as the mean decreased of peripheral WBCs percentage SEM. Statistical differences were determined using the unpaired t test. Statistical results were calculated using the graphPad Prism software.

C57BL/6J mice = test: Fentanyl-induced hyperalgesia, tail immersion test

CXCL12 to CXCR4, sequence (P48061 22-89 limits assumed): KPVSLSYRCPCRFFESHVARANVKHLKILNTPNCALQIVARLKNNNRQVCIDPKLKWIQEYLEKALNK

## COc1cc(/C=C/C(=O)c2ccc(Cl)cc2)ccc1O [Chalcone-4, (E)-1-(4-Chlorophenyl)-3-(4-hydroxy-3-methoxyphenyl)prop-2-en-1-one, reference compound]
CXCL12 to CXCR4
  Binding of CXCL12 to CXCR4: inhibits
[1]
  Inflammatory infiltration, in particular of eosinophils: inhibits inflammatory infiltration
[2]
  Inhibition of neutrophil recruitment: 30%
[3]
  IC50 on eosinophil recruitment: higher than 500 nmol/kg
CXCL12
  Intracellular calcium responses: inhibits intracellular calcium responses

## COc1cc(-c2cc(-c3ccc(Cl)cc3)nc(=O)[nH]2)ccc1O [compound (1), 4-(4-Chlorophenyl)-6-(4-hydroxy-3-methoxyphenyl)pyrimidin-2(1H)-one]
CCL17
  Activity towards CCL17: no activity
CCL22
  Activity towards CCL22: no activity
[2]
  Inhibition of neutrophil recruitment: 43%
MRL/lpr mice
  Peripheral blood hypercellularity (WBCs): significantly reduce peripheral blood hypercellularity
[3]; 300 nmol/kg, intranasal route, n=6
  Recruitment of eosinophils: inhibits the recruitment of eosinophils
[3]
  IC50 on eosinophil recruitment: 300 nmol/kg
C57BL/6J mice; 10 mg/kg i.p., co-administered with fentanyl
  Secondary hyperalgesia induced by fentanyl: completely prevented the development of secondary hyperalgesia
C57BL/6J mice; 50 mg/kg, i.p., without fentanyl
  Nociceptive threshold, compound alone: no effect on the nociceptive threshold
